These results are taken from PMC9960243, “Cytotoxic and Antileishmanial Effects of the Monoterpene β-Ocimene” (Pharmaceuticals, 2023).

The term EC50 denotes the concentration that produces a half-maximal response. Read a low EC50 as a more potent agent. As a reminder, the IC50 is the point on the concentration scale where inhibition reaches its midpoint. As usually defined, the CC50 is the concentration giving 50% cytotoxicity.

Common to all, as to type: cell-based
Data set [1] deals with Leishmania (Leishmania) amazonensis axenic amastigotes. Put plainly: microbe, parasite or virus in culture. The note with it: Leishmania, 72 h. Here is the method: (§1) Strains of Leishmania (Leishmania) amazonensis (IFLA/BR/67/PH8) (promastigote form) were cultivated in Schneider’s insect medium (supplemented with 10% FBS, and 1% antibiotic solution), at 26 °C, and at pH 7, in a biological oxygen demand (BOD) incubator. To transform the promastigote forms into axenic amastigotes, the temperature was increased to 32 °C and the pH of the medium was adjusted to 5.5 [14].
(§2) Promastigote and axenic amastigote growth inhibition was tested as previously described by DIAS et al.. In a 96-well plate, parasites were seeded at 10^6 parasites per well in 100 μL of supplemented Schneider medium. The parasites were treated with differing concentrations of β-ocimene (1.56–12.5 μM), and reference drugs, meglumine antimoniate (500–40,000 μM) and amphotericin B (0.062–0.5 μM). The plates were incubated in a BOD incubator at 26 °C for 72 h. Afterwards, 10 µL of MTT (5 mg/mL) was added to each well, and the plate was incubated again for 4 h, when 50 µL of 10% SDS was added. Absorbances were then measured using an ELISA plate reader (BioSystems model ELx800, Curitiba, PR, Brazil) at 540 nm. The negative control consisted of Schneider medium with 0.5% DMSO and was considered as 0% inhibition.

The subject of data set [2] is Leishmania (Leishmania) amazonensis promastigotes. Put plainly: microbe, parasite or virus in culture. The note with it: Leishmania, 72 h. On the procedure: as §1, §2
Data set [3] is described as follows: Cytotoxic effect on mammalian cells (MTT, 72 h), RAW 264.7. The settings on record: mouse, RAW 264.7 macrophages. Here is the method:
RAW 264.7 lineage macrophages (available from the cell bank in Rio de Janeiro, Brazil) were used, grown in sterile bottles with DMEM medium, pH 7.2 containing 10% FBS and 1% penicillin 100 U/mL and streptomycin 100 μg/mL, and kept in an oven at 37 °C and 5% CO2.
In a 96-well plate, RAW 264.7 macrophages were plated at 10^5 cells per well in 100 μL of supplemented DMEM medium. The plate was incubated for 3 h at 37 °C and 5% CO2 for cell adhesion. Afterwards, to remove non-adhered cells, washing with PBS (phosphate-buffered saline solution) was performed. Furthermore, 100 μL of DMEM supplemented with β-ocimene (3.12–400 μM), and the reference drugs, meglumine antimoniate (250–2000 μM) and amphotericin B (0.062–0.5 μM) were then added to the wells, with oven incubation at 37 °C, and 5% CO2 for 72 h. Then, 10 μL of MTT (5 mg/mL) per well was then added, being kept for another 4 h in an oven at 37 °C and 5% CO2. The supernatant was removed, and 100 µL of DMSO was added to all wells. After 30 min of stirring, readings were taken at 540 nm. DMEM supplemented with 0.5% DMSO was used as a negative control and considered as 100% macrophage viability. The selectivity index for each treatment was calculated by dividing the CC50 by the IC50, or EC50 [32].

The mark [4] stands for this setting: read-out: % Cytotoxicity Axenic Amastigotes.
The mark [5] stands for this setting: read-out: % Cytotoxicity Promastigotes.

Regarding `C=C/C(C)=C/CC=C(C)C` [β-ocimene, beta-3,7-dimethyl-1,3,6-octatriene], in data set [1] (setting [4]), the cytotoxicity at 1.56 µM came to 59.1 ± 2.4%, the cytotoxicity at 3.12 µM was found to be 79.1 ± 3.7%, the cytotoxicity at 6.25 µM turned out to be 100% and the cytotoxicity at 12.5 µM worked out at 100%. Further, the response in data set [1] (MTT) was half-maximal at 1120 ± 50 nM (EC50). In addition, in data set [2] (setting [5]), the cytotoxicity at 1.56 µM stood at 27.3 ± 2.16%, the cytotoxicity at 3.12 µM was determined as 70.2 ± 2.2%, the cytotoxicity at 6.25 µM was found to be 81.4% and the cytotoxicity at 12.5 µM stood at 100%. In data set [2] (MTT), it took 2780 ± 170 nM to reach half-maximal inhibition (IC50). The same molecule displayed a cytotoxicity at 72 h, 50 µM in data set [3] (pH 7.2, 50 µM) of 1.17 ± 0.09%. This molecule displayed a cytotoxicity at 72 h, 100 µM in data set [3] (pH 7.2, 100 µM) of 46.3 ± 4.11%. The same molecule returned a cytotoxicity at 72 h, 200 µM in data set [3] (pH 7.2, 200 µM) of 56.6 ± 5.92%. The same molecule showed a cytotoxicity at 72 h, 400 µM in data set [3] (pH 7.2, 400 µM) of 81.7 ± 8.16%. In data set [3] (pH 7.2, MTT), this molecule displayed a CC50 at 72 h of 114000 ± 8200 nM.
